We go through one compound from patent US10626148B2, “Glycopeptides conjugates and uses thereof” (priority 2015, dated 2020).

Series [1] concerns Vancomycin intermediate resistant S. aureus. The experiment in a line: MIC, micro-dilution broth, VISA. The class given is cell-based. Conditions: Staphylococcus aureus. The method, then: (§1) Test compounds were assayed in a micro-dilution broth format. Stock solutions were made by serially diluting the compounds using autoclaved millipore water or broth media. The antibacterial activity of the compounds was determined against gram positive bactreia like methicillin-resistant S. aureus (MRSA), vancomycin-intermediate-resistant S. aureus (VISA), vancomycin-sensitive E. faecium (VSE), vancomycin-resistant E. faecalis and vancomycin-resistant E. faecium (VRE). Antibacterial activity of dipicolyl-vancomycin conjugate conjugate (4) in combination with meropemem was determined against gram-negative bacteria such as K. pneumoniae ATCC BAA2146, clinical isolates K. pneumoniae R3949, K. pneumoniae R3934, E. coli R3336 and A. baumanii R676. Bacteria, to be tested, were grown for about 10 h in the suitable media, MRSA, VISA and gram negative bacteria were grown in Yeast-dextrose broth (about 1 g of beef extract, about 2 g of yeast extract, about 5 g of peptone and about 5 g of NaCl in about 1000 mL of sterile distilled water (pH-7)). For solid media, about 5% agar was used along with above mentioned composition. VSE and VRE were cultured in Brain Heart Infusion broth (Himedia). The bacterial samples were freeze dried and stored at −80° C. About 5 μL of these stocks were added to about 3 mL of the nutrient broth or Brain Heart Infusion broth and the culture was grown for about 6 h at about 37° C. prior to the experiments. This 6 h grown culture gives about 10^9 cfu/mL and this was determined by spread plating method. The 6 h grown culture was diluted to give effective cell concentration of about 10^5 cfu/mL which was then used for determining MIC. Compounds were serially diluted, in sterile water (2-fold dilution is employed) in a way that the working concentration was about 10 μM for MRSA, and VSE while for VRE, VISA and gram negative bacteria; it was about 100 μM. About 50 μL of these serial dilutions were added to the wells of 96 well plate followed by the addition of about 150 μL of bacterial solution. The plates were then incubated at about 37° C., 150 rpm in the incubator and O.D at 620 nm was recorded at an interval of about 24 h using TECAN (Infinite series, M200 pro) Plate Reader. Each concentration had triplicate values and the whole experiment was done at least twice and the MIC value was determined by taking the average of triplicate O.D. values for each concentration and plotting it against concentration. The data was then subjected to sigmoidal fitting.

Series [2] relates to Vancomycin-sensitive E. faecium (ATCC 19634). The experiment in a line: MIC, micro-dilution broth, VSEm. It counts as cell-based. Conditions: Enterococcus faecium, ATCC19634. The method, then: as §1
The subject of series [3] is Vancomycin-resistant E. faecium (VanA, ATCC 51559). The experiment in a line: MIC, micro-dilution broth, VREm. The class given is cell-based. The method, then: as §1
In series [4] the test system is meropenem-resistant NDM-1 K. pneumoniae R3934. Nature of the series: Sepsis infection model in mice. Conditions: CD-1 mice, i.p., 1 h and 24 h post-infection. The class given is in vivo. The method, then: Sepsis infection model: About six-week-old, female CD-1 mice (weight, ˜19-24 g) were used for the experiments. Mice were infected intraperitoneally (i.p.) with a dose of ˜10^6 CFU/mouse of meropenem-resistant NDM-1 K. pneumoniae R3934. Then, mice were treated twice at 1 h and 24 h post-infection with a specified i.p. dose of either saline, meropenem (10 mg/kg), compound 4 (10 mg/kg), or a combination of compound 4 (10 mg/kg) and meropenem (10 mg/kg). Here, colistin (5 mg/kg) was used as a positive control. Mice were euthanized after 48 h post-infection and then liver, spleen, kidney and lungs were collected to find out the bacterial density in these organs. Organs were placed into 10 ml sterile saline on ice, and then homogenized. The dilutions of the homogenate were plated onto agar plates, which were incubated for 24 h at 37° C. The bacterial titer was expressed as log10 CFU/g of organ weight.

The test system of series [5] is VREs ATCC 51575. It counts as in vivo, E. faecalis. Conditions: CD-1 mice, 12 mg/kg i.p. once daily, three doses. The method, then: Female CD-1 mice 6 to 8 weeks of age and weighing 20 to 25 g were used in this study. On day −7, all mice were injected intravenously (i.v.) with 0.2 mL of 0.2% λ-carrageenan to increase their susceptibility to bacterial renal infection. λ-Carrageenan increases mice susceptibility to renal infection following i.v. injection, possibly by forming a lattice structure in renal tissue and forming a support structure for bacterial attachment and growth. Bacterial strains that fail to cause renal infection in normal mice produce significant renal infections in λ-carrageenan-treated mice. On day 0, all mice were injected i.v. with 0.2 mL of the bacterial culture (VREs ATCC 51575, 10^8 CFU/mouse) through the tail vein. Four hours after the bacterial inoculation, mice were treated intraperitoneally (i.p.) with vancomycin, compound 4 and linezolid at 12 mg/kg of body weight or 0.2 mL of saline (0.9% NaCl) control (n=5). All the test compounds or saline were administered once daily for an additional two consecutive days for a total of three doses. All mice were sacrificed on day 3. Both kidneys from each mouse were removed aseptically and homogenized in 10 mL of saline. The dilutions of the homogenate were plated onto sheep blood agar plates, which were incubated overnight at about 37° C. The bacterial titer was expressed as log10 CFU/g of kidney weight.

Series [6] in a line: In-vivo toxicology, systemic toxicity. Conditions: 100 mg/kg. The method, then: To evaluate maximum tolerability of the new glycopeptide, systemic toxicity was performed on CD-1 female mice. Each mouse was injected with a 0.2 mL of freshly prepared compound 4 solution in saline. The dose of the compound administered was 100 mg/kg (n=5).
Series [7] relates to MRSA. Nature of the series: Resistance development study, serial passages. It counts as cell-based, S. aureus. Conditions: passaged at MIC/2. The method, then: MIC values of the compound 4 and vancomycin were determined against MRSA as described above. For the next day MIC experiment, the bacterial dilution was made by using the bacteria from sub-MIC concentration of the compounds (at MIC/2). Then, the concentration of this bacteria was adjusted to ˜10^5 CFU/mL based on OD600 and subjected to next MIC assay. After a 24 h incubation period, again bacterial dilution was prepared by using the bacterial suspension from sub-MIC concentration of the compound (at MIC/2) and assayed for another MIC experiment. The process was repeated for 25 passages, and the fold increase in MIC was determined. […] Thus bacteria were unable in acquiring resistance to this compound and this emphasizes the longevity of such compounds in clinics.

One may read the MIC as the lowest concentration found to suppress growth. The LD50 is the dose at which mortality reaches 50%.

The structures appear in SMILES notation.

On to `CN[C@H](CC(C)C)C(=O)N[C@H]1C(=O)N[C@@H](CC(N)=O)C(=O)N[C@H]2C(=O)N[C@H]3C(=O)N[C@H](C(=O)N[C@H](C(=O)NCCCCCCN(Cc4ccccn4)Cc4ccccn4)c4cc(O)cc(O)c4-c4cc3ccc4O)[C@H](O)c3ccc(c(Cl)c3)Oc3cc2cc(c3O[C@H]2OC(CO)[C@H](O)C(O)C2O[C@H]2CC(C)(N)[C@H](O)C(C)O2)Oc2ccc(cc2Cl)[C@H]1O` (some centres unmarked) [Compound 4, Dipicolyl-vancomycin conjugate], for which the minimum inhibitory concentration (MIC) came out at 0.4 µM in series [1]; 0.3 µM in series [2]; 1.2 µM in series [3] (Enterococcus faecium, ATCC51559). In addition, the “fold more active than vancomycin” value in series [3] (VREm (VRE), ratio of MIC values) is “about 700 fold”. In addition, the figures for the “in-vivo antibacterial activity, bacterial titer in organs” value in series [4] (10 mg/kg alone) and in series [4] (compound 4 (10 mg/kg) in combination with meropenem (10 mg/kg)) were “did not show any activity” and “excellent antibacterial activity”, respectively. For the same compound, the “reduction of bacterial titer from infected kidneys in comparison to vancomycin” value in series [5] is “reduced bacterial titer from the infected kidneys more effectively”. Further, in series [5] (kidneys), the “CFU reduction compared to vehicle treated control (saline)” value is reported as approximately 5.0 log10 CFU. In addition, the “survival at 14 days” value in series [6] (CD-1 female mice) is listed as “All the mice were found to survive”. Besides, the 50% lethal dose (LD50) at 14 days in series [6] (female, CD-1, mouse, in vivo) is more than 100 mg/kg. Moreover, the “fold increase in MIC after 25 serial passages” value in series [7] is on record as “remained the same”.
